The text below walks through data of US11707445B2, “Composition for blocking angiogenesis” (Indiana University Research and Technology Corporation, priority 2015, dated 2023).

Structures are written as SMILES.

Data set [1] has as its system retinal neovascularization. The settings on record: in vivo; cited from earlier work.
The test system of data set [2] is pre-existing retinal vasculature. Briefly: Staining of pre-existing retinal vasculature (isolectin B4 retina flatmounts). It is filed as in vivo, C57BL/6J mice. The settings on record: 14 days after 100 μM intravitreal injection, vs vehicle control.
Data set [3] relates to retina. Briefly: In vivo toxicity of intravitreally injected SH-11037 (histology, immunofluorescence). Also on record: species or system C57BL/6J mice. The protocol: (§1) All mouse experiments followed the guidelines of the Association for Research in Vision and Ophthalmology Statement for the Use of Animals in Ophthalmic and Visual Research and were approved by the Indiana University School of Medicine Institutional Animal Care and Use Committee. Wild-type female C57BL/6J mice, 6-8 weeks of age, were purchased from the Jackson Laboratory (Bar Harbor, Me.). Intraperitoneal injections of 17.5 mg/kg ketamine hydrochloride and 2.5 mg/kg xylazine mixture were used for anesthesia.
(§2) Injections were given under anesthesia in a 0.5 μL volume using a 33-gauge needle. The needle was kept in place for 1 minute to prevent the reflux of solution when the needle was removed. SH-11037 was dissolved in DMSO then diluted in PBS to a final concentration of 0.5% DMSO. Eyes were numbed with tetracaine solution before the injection, and triple antibiotic ointment was used immediately after the injection to prevent infection. A masked researcher undertook imaging and analysis to avoid bias.
Toxicity of intravitreally injected SH-11037 was initially assessed by histology and immunofluorescence. The presence of acute ocular toxicity was investigated by injecting SH-11037 at different concentrations (0.1, 1, 10, and 100 μM), while long-term effects were tested by injecting 10 μM SH-11037. Mice were sacrificed 3 and 14 days post injections, respectively. Eyes were enucleated and fixed in 4% PFA overnight, and then the eyes were paraffin embedded and sectioned at 5 μm thickness by the Indiana University School of Medicine Histology Core. Mayer's hematoxylin and eosin (H&E) staining was performed, and retinal morphology was quantified by calculating the ratio of A (the distance from the ganglion cell layer to the outer edge of the inner nuclear layer) to B (the distance from the ganglion cell layer to the outer edge of the outer nuclear layer).
For immunofluorescence, sections were deparaffinised with xylenes and ethanol series and boiled in citrate buffer for 5 minutes. […]

Data set [4] deals with human retinal endothelial cells (HRECs). The settings on record: cited from earlier work.
Data set [5] relates to mouse choroidal tissues. Put plainly: Choroidal sprouting assay (ex vivo). Format: cell-based, C57Bl/6J mice. The protocol: Sprouting of choroidal layers was tested as previously described in Shao et a., PLoS One, 2013 8(7): e69552. Briefly, 6-8 week old C57Bl/6J mice eyes were enucleated immediately after euthanasia. Peripheral parts of the choroid/sclera layer were separated and cut into pieces. Choroid fragments were then placed on growth factor-reduced Matrigel™ (30 μL/well; BD Biosciences, San Jose, Calif.) in 24-well plates. The plates were then incubated at 37° C. for about 10 minutes to allow the Matrigel to solidify. Endothelial Growth Medium (EGM-2) was prepared by mixing the contents of an EGM-2 “Bullet Kit” (Cat no. CC-4176) with Endothelial Basal Medium (EBM) (Lonza, Walkersville, Md.). Penicillin-streptomycin and 2.5 mg/mL Plasmocin were added to the final medium and used for this assay. Medium (500 μL) was added to each well of the plate and incubated at 37° C. with 5% CO2 for 72 hours before any treatments were added. Medium was changed after 48 hours. SH-11037 was synthesized as taught in WO2014/182695 (incorporated by reference to the extent it is consistent herewith) and dissolved in DMSO and then tested at 0.03, 0.3, and 1 μM concentrations for 48 hours. The final concentration of DMSO in each well was 0.2%. Trypan blue 0.4% solution (Fisher Scientific, Pittsburgh, Pa., USA) was used to assess cell viability. Images were taken using an EVOS-fl digital microscope (AMG, Mill Creek, Wash., USA) and data were analyzed as the sprouting distance in four different directions using ImageJ software v. 1.48V.

Data set [6] concerns neural retina function. Put plainly: Retinal electrophysiology (ERG) after intravitreal injection. Format: in vivo, C57BL/6J mice. The settings on record: 14 days after 100 μM SH-11037 injections, relative to control eyes. The protocol:
as §1
Injections were given under anesthesia in a 0.5 μL volume using a 33-gauge needle. The needle was kept in place for 1 minute to prevent the reflux of solution when the needle was removed. […]
Electroretinograms (ERG) were obtained from animals 14 days post intravitreal injection of 100 μM SH-11037, 0.2 ng mouse anti-VEGF neutralizing antibody (R&D Systems, Minneapolis, Minn., USA)+0.3 μM SH-11037, or vehicle control and performed as described in Cai et al., EMBO Mol Med, 2012 4(9):980-91. Briefly, scotopic rod recordings were performed on overnight dark-adapted mice, with 10 increasing light intensities of white light and responses were recorded with a visual electrodiagnostic system (UTAS-E 2000; LKC Technologies, Gaithersburg, Md.). […] Ten responses were recorded and averaged at each light intensity. […]

Data set [7] deals with CNV lesions. Put plainly: Laser-induced choroidal neovascularization (L-CNV) model. The settings on record: for reduction in CNV lesion volume (Z-stack images of agglutinin-stained choroidal flatmounts): day 14, vs vehicle control; for reduction of CNV lesion volume: day 14, vs control eyes, P<0.01. Format: in vivo, C57BL/6J mice. How it is done: as §1, §2
Laser photocoagulation was performed as described in Sulaiman et al., J Ocul Pharmacol Ther, 2015 and Poor et al., Invest Opthalmol Vis Sci, 2014 55(10): 6525-34. Briefly, eyes were dilated using 1% tropicamide, then underwent laser treatment using 50 μm spot size, 50 ms duration, and 250 mW pulses of an ophthalmic argon green laser, wavelength 532 nm, coupled to a slit lamp. A coverslip was used to allow viewing of the posterior pole of the eye. Each eye received 3 laser burns centered around the optic nerve at 12, 3, and 9 o'clock positions. The appearance of a bubble at the site of laser application was used to identify laser-induced damage of Bruch's membrane. Lesions in which bubbles were not observed were excluded from analysis. The effect of SH-11037 on the L-CNV model using final estimated vitreal concentrations of 0.1, 0.3, 1, or 10 μM SH-11037 was tested. Anti-mouse VEGF164 neutralizing antibody (R&D Systems, Minneapolis, Minn.) was tested at 0.2, 1, and 5 ng/eye. Vehicle (PBS+0.5% DMSO) was used as a negative control. All injections were given a single time, immediately after laser treatment. In testing the effects of SH-11037 on existing L-CNV lesions, vehicle, anti-VEGF164, and SH-11037 (10 μM) injections were given a single time, 5 days post laser.
Optical coherence tomography (OCT) was performed at the indicated times using the Micron III intraocular imaging system (Phoenix Research Labs, Pleasanton, Calif.). Before the procedure, eyes were dilated with 1% tropicamide solution (Alcon, Fort Worth, Tex.) and lubricated with hypromellose ophthalmic demulcent solution (Gonak) (Akorn, Lake Forest, Ill.). Mice were then placed on a custom heated stage that moves freely to position the mouse eye for imaging. Several horizontal and vertical images were taken per lesion to allow calculation of CNV lesion volume. Three-dimensional quantification of CNV lesion volumes was performed using an ellipsoid quantification method as described in Sulaiman et al., J Ocul Pharmacol Ther, 2015, 31(8):447-54. FA was performed 14 days post laser by intraperitoneal injections of 50 μL of 25% fluorescein sodium (Fisher Scientific, Pittsburgh, Pa.). Fundus images were taken using the Micron III system and Streampix software.
Choroidal flatmount preparation, staining, and imaging were done as described in Sulaiman et al., J Ocul Pharmacol Ther, 2015, 31(8):447-54. ImageJ software was used to analyze Z-stack images; the summation of the whole stained area in each section, multiplied by the distance between sections (3 μm) was used as an index for the CNV lesion volume. The volumes of the 3 lesions in each eye were averaged and considered as an n=1 for statistical analysis.

Data set [8] deals with new vessel growth induced by bFGF. The conditions noted are these: chick chorioallantoic membrane; cited from earlier work.
Data set [9] deals with choroidal neovascularization. The conditions noted are these: mouse, in vivo; cited from earlier work.
The subject of data set [10] is retina. The settings on record: 10 μM into the vitreous of normal adult mice; cited from earlier work.

For `COc1ccc(CC2COc3cc(OC)c(OC)c(OC)c3C2=O)cc1OC(=O)[C@H](Cc1ccccc1)NC(=O)OC(C)(C)C` (some centres unmarked) [SH-11037], in [1], the “pathogenic retinal neovascularization in OIR model” value was “significantly suppressed”. The “changes in pre-existing retinal vessels” value in [2] is “No changes”. For the same molecule, the “retinal thickness (A/B ratio) morphological changes” value in [3] (intravitreal SH-11037, 3 and 14 days post injections, vs vehicle-treated and uninjected eyes) is reported as “absence of morphological changes”. The “GFAP, cleaved caspase 3, TUNEL staining and MCP1 (retinal injury, apoptosis, inflammation)” value in [3] (intravitreal SH-11037, 3 and 14 days, vs vehicle-treated controls) is “Neither shorter-nor longer-term SH-11037 treated retina showed any significant increases”. In [3] (intravitreal SH-11037 up to 100 μM final concentration, 3 and 14 days post injection, vs vehicle and no injection control eyes), the “histological changes in H&E stained retinal sections” value was “no histological changes”. Also, the “induction of apoptosis in HRECs” value in data set [4] was “without inducing apoptosis”. In data set [4] (concentration-dependent), the HREC migration entry is recorded as “inhibited”. Also, the HREC proliferation entry in data set [4] (concentration-dependent) is on record as “inhibited”. Besides, in data set [4] (concentration-dependent), the HREC tube formation result was “inhibited”. For the same molecule, the “ability of choroidal tissues to form sprouts (sprouting distance)” value in [5] (0.03, 0.3, 1 μM, 48 hours, concentration-dependent, vs vehicle treated controls) is “significantly inhibited”. The “cell viability of choroidal sprouts by Trypan blue staining” value in [5] (48 hours, 1 μM SH-11037 vs DMSO controls) is on record as “absence of significant cell death”. Further, the “potent inhibitory concentration in choroidal sprouting” value in [5] (ex vivo choroid microvascular tissue) was found to be 0.03 µM. In data set [6], the “ERG scotopic a- and b-waves, and photopic b-waves” value was “not significantly different”. Moreover, the “reduction in CNV lesion volume (Z-stack images of agglutinin-stained choroidal flatmounts)” value in data set [7] (0.1 μM intravitreal) and in data set [7] (0.3 μM intravitreal) was “no reduction” each time. In addition, the “reduction of CNV lesion volume” value in data set [7] (1 μM intravitreal) is given as “about 42%”; in data set [7] (10 μM intravitreal), approximately 55%. The “vascular volumes of pre-existing CNV lesions relative to vehicle” value in data set [7] (10 μM intravitreal single injection 5 days post laser, quantified 14 days post laser) is “significantly suppressed”. Moreover, the “leakiness of CNV lesions by fluorescein angiography” value in [7] (14 days post laser, relative to vehicle treatment) was “reduced leakiness”. Moreover, the “CNV vascular volumes at day 14 versus 5 days control” value in [7] (injection 5 days post laser (10 μM SH-11037; 5 ng anti-VEGF164)) is “no significant difference”. Also, in [7] (intravitreal 0.1, 0.3, 1, 10 μM immediately after laser, 7 days post-laser, vs vehicle, dose-dependent), the “CNV lesion volumes by OCT, ellipsoid volume quantification” value is “significantly lower”.

For the molecule `COc1ccc(CC2COc3cc(O)c(OC)c(O)c3C2=O)cc1O` (centres unmarked) [cremastranone, 5,7-dihydroxy-3-(3-hydroxy-4-methoxybenzyl)-6-methoxychroman-4-one], the “pathogenic retinal neovascularization in OIR model” value in data set [1] is “showed efficacy”. For the same molecule, in [8], the “blocking new vessel growth induced by bFGF” value is listed as “as effective as retinoic acid”. In addition, in data set [9], the “pathogenic neovascularization in laser photocoagulation CNV model” value is “showed efficacy”. In [10], the “apoptosis of retinal cells” value is listed as “nor did it induce apoptosis” and the “cytotoxic or inflammatory effects on the retina” value is “no cytotoxic or inflammatory effects”.
